According to PubChem BioAssay (NCI):
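Assay format: 96-well plates, 48-hour exposure. GI50: concentration for 50% inhibition of growth. TGI: total growth inhibition.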

How the values were obtained:
Test in all cases: DTP human tumour cell line panel, 48 h
786-0 renal = test system: 786-0 renal
A498 renal = test system: A498 renal
A549 NSCLC = test system: A549 NSCLC
BT-549 breast = test system: BT-549 breast
CAKI-1 renal = test system: CAKI-1 renal
DU-145 prostate = test system: DU-145 prostate
HCC-2998 colon = test system: HCC-2998 colon
HCT-116 colon = test system: HCT-116 colon
HCT-15 colon = test system: HCT-15 colon
HOP-62 NSCLC = test system: HOP-62 NSCLC
HOP-92 NSCLC = test system: HOP-92 NSCLC
HT29 colon = test system: HT29 colon
IGROV1 ovarian = test system: IGROV1 ovarian
KM12 colon = test system: KM12 colon
LOX IMVI melanoma = test system: LOX IMVI melanoma
M14 melanoma = test system: M14 melanoma
MALME-3M melanoma = test system: MALME-3M melanoma
MCF7 breast = test system: MCF7 breast
MDA-MB-231 breast = test system: MDA-MB-231 breast
MDA-MB-435 = test system: MDA-MB-435
NCI-H226 lung = test system: NCI-H226 lung
NCI-H460 lung = test system: NCI-H460 lung
NCI-H522 lung = test system: NCI-H522 lung
NCI/ADR-RES ovarian = test system: NCI/ADR-RES ovarian
OVCAR-3 ovarian = test system: OVCAR-3 ovarian
OVCAR-4 ovarian = test system: OVCAR-4 ovarian
OVCAR-5 ovarian = test system: OVCAR-5 ovarian
OVCAR-8 ovarian = test system: OVCAR-8 ovarian
PC-3 prostate = test system: PC-3 prostate
RXF 393 renal = test system: RXF 393 renal
SF-268 CNS = test system: SF-268 CNS
SF-295 CNS = test system: SF-295 CNS
SF-539 CNS = test system: SF-539 CNS
SK-MEL-2 melanoma = test system: SK-MEL-2 melanoma
SK-MEL-28 melanoma = test system: SK-MEL-28 melanoma
SK-MEL-5 melanoma = test system: SK-MEL-5 melanoma
SK-OV-3 ovarian = test system: SK-OV-3 ovarian
SN12C renal = test system: SN12C renal
SNB-19 CNS = test system: SNB-19 CNS
SNB-75 CNS = test system: SNB-75 CNS
SW-620 colon = test system: SW-620 colon
TK-10 renal = test system: TK-10 renal
U251 CNS = test system: U251 CNS
UACC-257 melanoma = test system: UACC-257 melanoma
UACC-62 melanoma = test system: UACC-62 melanoma
UO-31 renal = test system: UO-31 renal

For `FC(F)(F)Oc1cccc(-c2cc(NCCCCCCNc3cc(-c4cccc(OC(F)(F)F)c4)nc4ccc(N5CCCC5)cc34)c3cc(N4CCCC4)ccc3n2)c1`, the GI50 (786-0 renal) was 1800 nM, the TGI (786-0 renal) was 3490 nM and the GI50 (A498 renal) was 2050 nM. For the same compound, the TGI (A498 renal) was 3570 nM, the GI50 (A549 NSCLC) was 2050 nM and the TGI (A549 NSCLC) was 4490 nM. For the same compound, the GI50 (BT-549 breast) was 1780 nM, the TGI (BT-549 breast) was 3720 nM and the GI50 (CAKI-1 renal) was 1650 nM. It also gave a TGI (CAKI-1 renal) of 3010 nM, a GI50 (DU-145 prostate) of 2460 nM and a TGI (DU-145 prostate) of 5760 nM. For the same compound, the GI50 (HCC-2998 colon) was 1740 nM, the TGI (HCC-2998 colon) was 3270 nM and the GI50 (HCT-116 colon) was 2210 nM. For the same compound, the TGI (HCT-116 colon) was 5540 nM, the GI50 (HCT-15 colon) was 1840 nM and the TGI (HCT-15 colon) was 3690 nM. The GI50 (HOP-62 NSCLC) was 2040 nM, the TGI (HOP-62 NSCLC) was 4440 nM and the GI50 (HOP-92 NSCLC) was 1540 nM. It also gave a TGI (HOP-92 NSCLC) of 3180 nM, a GI50 (HT29 colon) of 2150 nM and a TGI (HT29 colon) of 4350 nM. For the same compound, the GI50 (IGROV1 ovarian) was 1520 nM, the TGI (IGROV1 ovarian) was 3120 nM and the GI50 (KM12 colon) was 1740 nM. It also gave a TGI (KM12 colon) of 3270 nM, a GI50 (LOX IMVI melanoma) of 1850 nM and a TGI (LOX IMVI melanoma) of 3540 nM. For the same compound, the GI50 (M14 melanoma) was 1840 nM, the TGI (M14 melanoma) was 3650 nM and the GI50 (MALME-3M melanoma) was 1680 nM. For the same compound, the TGI (MALME-3M melanoma) was 3100 nM, the GI50 (MCF7 breast) was 1730 nM and the TGI (MCF7 breast) was 3490 nM. For the same compound, the GI50 (MDA-MB-231 breast) was 1720 nM, the TGI (MDA-MB-231 breast) was 3160 nM and the GI50 (MDA-MB-435) was 1820 nM. The TGI (MDA-MB-435) was 3270 nM, the GI50 (NCI-H226 lung) was 1860 nM and the TGI (NCI-H226 lung) was 3690 nM. For the same compound, the GI50 (NCI-H460 lung) was 1840 nM, the TGI (NCI-H460 lung) was 3400 nM and the GI50 (NCI-H522 lung) was 2050 nM. For the same compound, the TGI (NCI-H522 lung) was 4760 nM, the GI50 (NCI/ADR-RES ovarian) was 2070 nM and the TGI (NCI/ADR-RES ovarian) was 4500 nM. The GI50 (OVCAR-3 ovarian) was 1830 nM, the TGI (OVCAR-3 ovarian) was 3240 nM and the GI50 (OVCAR-4 ovarian) was 1700 nM. For the same compound, the TGI (OVCAR-4 ovarian) was 3190 nM, the GI50 (OVCAR-5 ovarian) was 1760 nM and the TGI (OVCAR-5 ovarian) was 3180 nM. For the same compound, the GI50 (OVCAR-8 ovarian) was 2130 nM, the TGI (OVCAR-8 ovarian) was 5080 nM and the GI50 (PC-3 prostate) was 2020 nM. The TGI (PC-3 prostate) was 4420 nM, the GI50 (RXF 393 renal) was 1650 nM and the TGI (RXF 393 renal) was 3220 nM. The GI50 (SF-268 CNS) was 1940 nM, the TGI (SF-268 CNS) was 3900 nM and the GI50 (SF-295 CNS) was 1690 nM. For the same compound, the TGI (SF-295 CNS) was 3110 nM, the GI50 (SF-539 CNS) was 1850 nM and the TGI (SF-539 CNS) was 3330 nM. The GI50 (SK-MEL-2 melanoma) was 1960 nM, the TGI (SK-MEL-2 melanoma) was 3630 nM and the GI50 (SK-MEL-28 melanoma) was 1830 nM. The TGI (SK-MEL-28 melanoma) was 3300 nM, the GI50 (SK-MEL-5 melanoma) was 1770 nM and the TGI (SK-MEL-5 melanoma) was 3220 nM. For the same compound, the GI50 (SK-OV-3 ovarian) was 1780 nM, the TGI (SK-OV-3 ovarian) was 3360 nM and the GI50 (SN12C renal) was 1640 nM. The TGI (SN12C renal) was 3060 nM, the GI50 (SNB-19 CNS) was 1550 nM and the TGI (SNB-19 CNS) was 2980 nM. It also gave a GI50 (SNB-75 CNS) of 1660 nM, a TGI (SNB-75 CNS) of 3160 nM and a GI50 (SW-620 colon) of 1810 nM. For the same compound, the TGI (SW-620 colon) was 3350 nM, the GI50 (TK-10 renal) was 1780 nM and the TGI (TK-10 renal) was 3370 nM. It also gave a GI50 (U251 CNS) of 2110 nM, a TGI (U251 CNS) of 4620 nM and a GI50 (UACC-257 melanoma) of 1890 nM. The TGI (UACC-257 melanoma) was 3880 nM, the GI50 (UACC-62 melanoma) was 1770 nM and the TGI (UACC-62 melanoma) was 3160 nM. It also gave a GI50 (UO-31 renal) of 1540 nM and a TGI (UO-31 renal) of 2880 nM.
